Assay results from patent US20180362485A1, “N-HYDROXYFORMAMIDE COMPOUNDS AND COMPOSITIONS COMPRISING THEM FOR USE AS BMP l, TLL1 AND/OR TLL2 INHIBITORS” (GlaxoSmithKline Intellectual Property (No. 2) Limited, priority 2015, published 2018).

Assays:
human TLL2 = target: T1, human TLL2 (Homo sapiens, UniProt Q9Y6L7); experiment: Enzyme inhibition assay for human TLL2; format: biochemical; conditions: 18 nM TLL2, 5 μM promyostatin peptide substrate; read-out: pIC50, TLL2 enzyme inhibition assay (converted)
T1 construct: amino acids 26-1015 of human TLL2 (NM_012465); made in house
T1 sequence (Q9Y6L7 150-1015): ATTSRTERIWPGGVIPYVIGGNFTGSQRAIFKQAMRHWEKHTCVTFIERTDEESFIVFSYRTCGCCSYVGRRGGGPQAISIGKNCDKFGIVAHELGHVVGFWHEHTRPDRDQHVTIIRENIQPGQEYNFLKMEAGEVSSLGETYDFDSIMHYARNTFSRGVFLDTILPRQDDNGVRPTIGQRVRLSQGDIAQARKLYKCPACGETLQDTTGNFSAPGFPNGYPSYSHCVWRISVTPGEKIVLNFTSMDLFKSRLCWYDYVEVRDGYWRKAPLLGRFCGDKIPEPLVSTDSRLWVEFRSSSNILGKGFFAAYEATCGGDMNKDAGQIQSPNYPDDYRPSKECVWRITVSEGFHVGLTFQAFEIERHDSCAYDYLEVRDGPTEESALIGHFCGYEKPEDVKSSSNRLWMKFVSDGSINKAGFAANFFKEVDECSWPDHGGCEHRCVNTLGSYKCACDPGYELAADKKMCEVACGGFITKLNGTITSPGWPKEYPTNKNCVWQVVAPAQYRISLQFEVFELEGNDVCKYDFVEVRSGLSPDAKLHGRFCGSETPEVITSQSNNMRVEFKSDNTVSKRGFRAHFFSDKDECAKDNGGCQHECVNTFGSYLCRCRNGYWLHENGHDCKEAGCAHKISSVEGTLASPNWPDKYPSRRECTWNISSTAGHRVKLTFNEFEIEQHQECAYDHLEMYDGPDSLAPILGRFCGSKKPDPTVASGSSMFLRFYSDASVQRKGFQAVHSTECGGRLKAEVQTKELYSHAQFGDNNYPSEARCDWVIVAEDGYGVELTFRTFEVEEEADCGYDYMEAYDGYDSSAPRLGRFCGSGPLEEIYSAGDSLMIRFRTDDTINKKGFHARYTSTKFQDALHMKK
Source text: Buffer components are purchased from Sigma-Aldrich (St. Louis, Mo.) or an equivalent supplier. The promyostatin peptide substrate is custom synthesized by American Peptide Company (Sunnyvale, Calif.) using the myostatin protein sequence (Uniprot accession number 014793) surrounding the cleavage site reviewed in Hopkins, D. R., et al., 2007 Matrix Biology, 26, 508-523. The procollagen peptide substrate used in the high enzyme BMP1 cleavage assay is custom synthesized by 21st Century Biochemicals (Marlboro, Mass.) using the procollagen Iα protein sequence (Uniprot accession number P02452) surrounding the cleavage site reviewed in Hopkins, D. R., et al., 2007 Matrix Biology, 26, 508-523.
The DNA sequence encoding amino acids 26-1015 of human TLL2 (NM_012465) is PCR amplified from DNA template with the human RAGE signal sequence at the N-terminus and Avi-6×His epitope tags at the C-terminus ([…]). […]
Inhibition of human TLL1 and TLL2 recombinant enzymes is measured in 10 ul endpoint assays in 384-well format using the same promyostatin peptide substrate employed in the above Enzyme Inhibition Assay for human BMP1. […] TLL1 and TLL2 reactions are quenched with 5 μl of 0.5 M EDTA and plates are read on a ViewLux (Perkin Elmer) multilabel plate reader using a 480 nm excitation filter and 540 nm emission filter. […]

[1] = system: deposition of mature collagen; experiment: Cell-based inhibition assay of mature collagen deposition (immunostaining); conditions: Cardiac fibroblast; human cardiac fibroblasts, immunostaining of mature collagen I; read-out: pIC50, mature collagen cellular inhibition assay (converted)
Procedure: An adaptation of the collagen deposition assay described by Chen, C. Z. C., et al., British Journal of Pharmacology, 2009, 158, 1196-1209 is used to examine effect of compounds on procollagen I processing and collagen deposition. In the adapted assay, human cardiac fibroblasts are utilized. Processing of procollagen I is determined by a PICP ELISA assay and deposition of mature collagen is determined by immunostaining.
Human cardiac fibroblasts are cultured and maintained until passage 6 in FGM-3 media (Lonza, #CC-3132) in a 37° C. humidified incubator with 5% CO2. They are then seeded in 96-well black wall, clear bottom plates at 10,000 to 15,000 cells per well in eagle's minimum essential media (EMEM, ATCC #30-2003) containing 10% fetal bovine serum (FBS, Life Technologies #10082147), 1% Glutamax (Life Technologies #35050061) and 1% Penicillin and Streptomycin (Life Technologies #15070063). These cultures are placed in 37° C. incubator. The next day, media is removed by aspiration and cells are rinsed with phosphate buffered saline. Crowding media (also called ficoll media) is prepared by adding 112.5 mg/ml of ficoll70 and 75 mg/ml ficoll400 (GE healthcare #17-0310-10 and 17-0300-10, respectively), 100 μM ascorbic acid, 1% Glutamax and 1% Penicillin and Streptomycin to EMEM media. Test compounds (dissolved in DMSO) are diluted into crowding media and then added to the cells. Final concentration of DMSO in crowding media is less than 0.3%. Cells are treated for 24 to 48 hr in a 37° C. incubator. At the end of the treatment period, cell media are collected. The level of PICP in the media is determined by a PICP ELISA assay (Quidel #8003) following the manufacturer's protocol. Potencies of test compounds are calculated by fitting PICP levels, relative to untreated controls, to log (inhibitor) vs. response equation using Graphpad Prism software 5.0 and expressed as pIC50.
For some compounds, deposition of mature collagen is measured by immunostaining in addition to PICP levels. At the end of the treatment period, cells on culture plate are fixed with 100% methanol (prechilled to −20° C.) for 10 min. Then the cells are immunostained with mouse anti-mature collagen I antibody (1:500 dilution, Sigma#C2456), anti-mouse secondary antibody Alexa647 (1:500 dilution, Invitrogen#A21236) and Hoechst (for nuclei, 2 μg/ml, Invitrogen#H3596). Fluorescent image acquisition is done using the Operetta High Content Imaging system (Perkin Elmer). For each image field, the intensity of mature collagen staining is normalized with the number of nuclei. Normalized collagen levels are used to calculate the potency of test compounds with Graphpad Prism software, as described above.

IC50 (human TLL2): < 794 nM
Structure (SMILES): CCCCC[C@@H](C(=O)NCNC(=O)c1ccc(-c2ccccc2)o1)[C@@H](CC)N(O)C=O [WO2015/104684 Example 24, N—(((R)-2-((R)-1-(N-hydroxyformamido)propyl)heptanamido)methyl)-5-phenylfuran-2-carboxamide]
IC50 [1]: < 1000 nM
